From patent US5880097A, “Tethered prodrugs” (Terrapin Techologies, Inc., priority 1996, dated 1999)
*1 amine or outer side, *2 acyl side, *3 side chain or, on linkers, in order; H or OH if unused. Where a SMILES comes first, the peptide text is derived from it. [ ]: non-standard residue; d: D form. The star is where a group is joined. γGlu = O=C(O)[C@H](CCC(=O)[*:2])N[*:1]; dPhg = N[C@@H](C(=O)O)c1ccccc1; Bn = c1ccc(C*)cc1

Tests used:
[1] = biological target: GST P1-1 (Homo sapiens, UniProt P09211); details: cited from earlier work
[2] = biological target: T1, GST A1-1 (Homo sapiens, UniProt P08263); details: as described in the PCT application WO 95/09866; cited from earlier work
T1 sequence (P08263 1-222): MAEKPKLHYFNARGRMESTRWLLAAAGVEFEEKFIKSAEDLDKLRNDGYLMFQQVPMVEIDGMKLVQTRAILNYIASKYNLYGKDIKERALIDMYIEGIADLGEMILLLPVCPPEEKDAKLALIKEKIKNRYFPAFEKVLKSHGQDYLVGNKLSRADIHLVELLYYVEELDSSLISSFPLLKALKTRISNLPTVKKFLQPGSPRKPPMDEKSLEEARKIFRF

[3] = biological target: T2, MRP system of human erythrocytes (Homo sapiens, UniProt P33527); experiment: Stimulation of basal Mg+2 stimulated ATPase activity in erythrocyte membranes; type: biochemical; details: 37° C., 30 minutes; for Km / Vmax of ATPase stimulation: average of three determinations
T2 construct: from tissue; host or cells: human erythrocytes (membranes; inside-out vesicles)
Experimental: (§1) Two indirect measures of interaction of test compounds in the MRP system of human erythrocytes were used. The first was stimulation of basal Mg^+2 stimulated ATPase activity, the other was inhibition of transport of tritiated dinitrophenyl-S-glutathione.
In the first method, the method of Bartosz, M. et al, Biochem Mol Biol Int (1994) 34:521-529 was used. Briefly, the compounds were added to erythrocyte membranes in a medium containing 100 mM Tris HCl, […], 10 mM MgCl2, 1 mM ATP, 0.1 mM ouabain and 1 mM EGTA with an incubation at 37° C. for 30 minutes. Stimulation of ATPase activity was measured as described.

[4] = biological target: T2, MRP system of human erythrocytes; experiment: Inhibition of uptake of tritiated DNP-glutathione conjugate by inside-out vesicles of human erythrocytes; type: biochemical; details: for inhibition of labeled conjugate (DNP-GSH) uptake: compound 1 μM, labeled DNP-GSH 5 μM, 15 minutes at 37° C., mean of three trials; for Interaction with MRP pump (reduction of transport of radiolabeled GSH analog): summary in words
Experimental: as §1
In the alternative method, the uptake of tritiated DNP-glutathione conjugate by inside-out vesicles of human erythrocytes was determined as described in Akerboom, T. P. M. et al, Biochim Biophys Acta (1992) 1103.:115-119. The labeled DNP-GSH concentration was 5 μM and the compounds were added at a final concentration of 1 μM; uptake of labeled DNP-GSH was measured after 15 minutes incubation at 37° C.

T2 sequence (P33527 whole entry): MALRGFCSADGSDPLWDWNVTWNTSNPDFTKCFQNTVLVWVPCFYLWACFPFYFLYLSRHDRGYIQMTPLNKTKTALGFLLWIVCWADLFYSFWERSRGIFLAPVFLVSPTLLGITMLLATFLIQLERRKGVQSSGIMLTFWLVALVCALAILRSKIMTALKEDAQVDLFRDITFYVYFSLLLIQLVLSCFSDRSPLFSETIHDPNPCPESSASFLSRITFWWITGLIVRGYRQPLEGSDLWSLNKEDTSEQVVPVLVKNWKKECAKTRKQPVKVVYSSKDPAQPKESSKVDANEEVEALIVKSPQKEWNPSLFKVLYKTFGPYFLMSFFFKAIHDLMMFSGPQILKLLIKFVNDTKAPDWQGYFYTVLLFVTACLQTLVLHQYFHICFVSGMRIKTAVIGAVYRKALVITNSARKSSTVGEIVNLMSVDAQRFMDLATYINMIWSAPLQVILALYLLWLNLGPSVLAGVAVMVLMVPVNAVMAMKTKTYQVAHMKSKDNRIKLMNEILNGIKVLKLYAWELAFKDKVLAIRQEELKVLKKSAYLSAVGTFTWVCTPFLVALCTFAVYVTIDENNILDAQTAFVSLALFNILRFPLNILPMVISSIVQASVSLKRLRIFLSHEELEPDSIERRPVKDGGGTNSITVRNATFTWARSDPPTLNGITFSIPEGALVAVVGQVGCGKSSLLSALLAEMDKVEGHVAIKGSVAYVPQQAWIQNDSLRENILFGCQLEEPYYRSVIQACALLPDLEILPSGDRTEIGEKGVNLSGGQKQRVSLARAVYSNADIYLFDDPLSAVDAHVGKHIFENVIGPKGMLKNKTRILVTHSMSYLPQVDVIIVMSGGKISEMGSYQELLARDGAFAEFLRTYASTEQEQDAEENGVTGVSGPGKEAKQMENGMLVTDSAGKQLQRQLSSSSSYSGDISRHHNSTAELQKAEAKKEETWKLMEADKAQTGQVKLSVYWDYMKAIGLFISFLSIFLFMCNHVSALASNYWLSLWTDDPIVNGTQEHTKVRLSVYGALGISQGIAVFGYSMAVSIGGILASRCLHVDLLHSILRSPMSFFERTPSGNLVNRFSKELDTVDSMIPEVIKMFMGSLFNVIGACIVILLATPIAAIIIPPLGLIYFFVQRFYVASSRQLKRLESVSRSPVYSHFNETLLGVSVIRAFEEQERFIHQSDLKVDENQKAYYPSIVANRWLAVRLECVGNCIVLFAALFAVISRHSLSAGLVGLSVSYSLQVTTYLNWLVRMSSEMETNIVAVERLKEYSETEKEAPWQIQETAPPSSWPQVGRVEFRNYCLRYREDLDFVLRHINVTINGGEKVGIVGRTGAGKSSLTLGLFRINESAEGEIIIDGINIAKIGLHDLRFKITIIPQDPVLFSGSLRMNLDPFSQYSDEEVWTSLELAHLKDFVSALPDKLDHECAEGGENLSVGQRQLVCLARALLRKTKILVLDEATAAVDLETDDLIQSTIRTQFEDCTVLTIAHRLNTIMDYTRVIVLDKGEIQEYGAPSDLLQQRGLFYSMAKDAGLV
Sequence of GST P1-1 (P09211 2-210 limits assumed): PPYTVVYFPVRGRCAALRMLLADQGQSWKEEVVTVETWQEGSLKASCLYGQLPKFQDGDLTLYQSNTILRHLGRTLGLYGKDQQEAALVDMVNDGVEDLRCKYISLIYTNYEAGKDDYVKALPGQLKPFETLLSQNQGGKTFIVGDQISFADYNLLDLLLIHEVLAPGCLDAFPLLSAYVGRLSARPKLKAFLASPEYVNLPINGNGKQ

Structure (SMILES)	Susceptibility to cleavage by GST P1-1 ([1]; as described in the PCT application WO 95/09866)	Isoenzyme specificity of prodrug ([1]; cells having GST complements high in the P1-1 isoform)	Susceptibility to cleavage by GST A1-1 [2]	Stimulation of ATPase activity [3]	inhibition of labeled conjugate (DNP-GSH) uptake [4]	Interaction with MRP pump (reduction of transport of radiolabeled GSH analog) [4]	Km [3]	Vmax of ATPase stimulation [3]
N[C@@H](CCC(=O)N[C@@H](CS(=O)(=O)CCOP(=O)(N(CCCl)CCCl)N(CCCl)CCCl)C(=O)N[C@@H](C(=O)O)c1ccccc1)C(=O)O [TER 286]	particularly susceptible to cleavage	has the desired isoenzyme specificity	particularly susceptible to cleavage	–	–	–	–	–
N[C@@H](CCC(=O)N[C@@H](CSCc1ccccc1)C(=O)N[C@@H](C(=O)O)c1ccccc1)C(=O)O [TER 117, γGlu-C(Bz)-.o slashed.Gly] (γGlu-Cys(Bn)-[dPhg]-OH)	–	–	–	did not stimulate ATPase activity	0.2%	does not	–	–
N[C@@H](CCC(=O)N[C@@H](CSCc1ccccc1)C(=O)NCCC(=O)O)C(=O)O [TER 106, γGlu-C(Bz)-βAla]	–	–	–	–	66.2%	interact with MRP so as to reduce the transport of radiolabeled GSH analog	1820 µM	209.6 mM/mg protein per hr
N[C@@H](CCC(=O)N[C@@H](CSCc1ccccc1)C(=O)NCC(=O)O)C(=O)O [TER 222, γGlu-C(Bz)-Gly]	–	–	–	–	62.5%	interact with MRP so as to reduce the transport of radiolabeled GSH analog	385 µM	125.9 mM/mg protein per hr
